How the values were obtained:
[1] = test system: CAPAN-1 (Pancreatic Carcinoma); test: combination Emax (second highest fraction inhibited in the dose matrix, 72 h); higher = more inhibition; extreme values may be limits of the assay
Procedure, shortened: (§1)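 Cell lines in DMEM/F12 or RPMI with 10% FBS were plated in 1536-well plates, held 24 hours at 37°C, 5% CO2, then given two-drug dose matrices for 72 hours (DMSO typically 0.2%). Viability was read by CellTiter-Glo 2.0 luminescence and scaled as inhibition from 0 (vehicle wells) to 1 (blank wells). Combination Emax is the second-highest inhibition in the matrix; Bliss excess is observed combination effect minus expected EA + EB − EA·EB, EA and EB being single-agent effects.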

[2] = test system: SW1116 (Colorectal Carcinoma); test: as above
Procedure, shortened: as §1

[3] = test system: KARPAS-231 (B-Cell Non-Hodgkin's Lymphoma); test: as above
Procedure, shortened: as §1

Mewo (Melanoma) = test: as above
Procedure, shortened: as §1

[4] = test system: LU-139 (Small Cell Lung Carcinoma); test: Bliss excess, mean over the matrix (fraction); higher = more synergy
Procedure, shortened: as §1

[5] = test system: CAPAN-1 (Pancreatic Carcinoma); test: as above
Procedure, shortened: as §1

NCI-H2795 (Mesothelioma) = test: as above
Procedure, shortened: as §1

[6] = test system: NCI-H69 (Small Cell Lung Carcinoma); test: as above
Procedure, shortened: as §1

[7] = test system: TE-4 (Esophageal Squamous Cell Carcinoma); test: as above
Procedure, shortened: as §1

[8] = test system: HDLM-2 (Hodgkin's Lymphoma); test: as above
Procedure, shortened: as §1

[9] = test system: MHH-PREB-1 (B-Cell Non-Hodgkin's Lymphoma); test: as above
Procedure, shortened: as §1

[10] = test system: RT-112 (Bladder Carcinoma); test: as above
Procedure, shortened: as §1

[11] = test system: SUP-T1 (T-Lymphoblastic Leukemia); test: as above
Procedure, shortened: as §1

COLO-829 (Melanoma) = test: as above
Procedure, shortened: as §1

[12] = test system: K5 (Thyroid Gland Carcinoma); test: as above
Procedure, shortened: as §1

[13] = test system: OC-314 (Ovarian Carcinoma); test: as above
Procedure, shortened: as §1

[14] = test system: RKO (Colorectal Carcinoma); test: as above
Procedure, shortened: as §1

NB14 (Neuroblastoma) = test: as above
Procedure, shortened: as §1

[15] = test system: SW626 (Colorectal Carcinoma); test: as above
Procedure, shortened: as §1

[16] = test system: SW1271 (Small Cell Lung Carcinoma); test: as above
Procedure, shortened: as §1
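Wherever Bliss excess, mean over the matrix is given: after 72 h of two-drug dosing.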

Compound | combination Emax [1] | combination Emax [2] | combination Emax [3] | combination Emax (Mewo (Melanoma)) | Bliss excess [4] | Bliss excess [5] | Bliss excess (NCI-H2795 (Mesothelioma)) | Bliss excess [6] | Bliss excess [7] | Bliss excess [8] | Bliss excess [9] | Bliss excess [10] | Bliss excess [11] | Bliss excess (COLO-829 (Melanoma)) | Bliss excess [12] | Bliss excess [13] | Bliss excess [14] | Bliss excess (NB14 (Neuroblastoma)) | Bliss excess [15] | Bliss excess [16]
C[C@@H](c1ccc2nccn2c1)n1nnc2ncc(-c3cnn(C)c3)nc21 [Savolitinib] + Cc1c2c(nn1C)CSCc1cc(n(C)n1)CSc1cc(c3ccccc3c1)OCCCc1c(C(=O)O)n(C)c3c-2c(Cl)ccc13 [AZD5991] (first compound max 1 µM, 7x7, partner max 1 µM) | 0.242 | 0.218 | 0.606 | 0.265 | -0.0213 | -0.0702 | 0.008 | -0.0269 | -0.0289 | -0.0099 | -0.0375 | -0.0265 | -0.0571 | -0.0075 | -0.0085 | -0.018 | -0.0067 | -0.0411 | 0.0147 | -0.0415
COc1nnc2ccc(N3CCC(c4ccc(OCCN5CCN(C)C(=O)[C@H]5C)cc4)CC3)nn12 [AZD5153] + Cc1c2c(nn1C)CSCc1cc(n(C)n1)CSc1cc(c3ccccc3c1)OCCCc1c(C(=O)O)n(C)c3c-2c(Cl)ccc13 [AZD5991] (first compound max 1 µM, 7x7, partner max 1 µM) | 0.417 | 0.414 | 0.941 | 0.719 | -0.0069 | -0.0534 | 0.0103 | -0.0507 | -0.0212 | -0.0401 | -0.0418 | 0.0039 | -0.021 | -0.0168 | -0.0635 | -0.0625 | -0.0293 | 0.034 | -0.0374 | -0.0242
CC(=O)c1c(C)c2cnc(Nc3ccc(N4CCNCC4)cn3)nc2n(C2CCCC2)c1=O [Palbociclib] + CC1(C)CCC(CN2CCN(c3ccc(C(=O)NS(=O)(=O)c4ccc(NCC5CCOCC5)c([N+](=O)[O-])c4)c(Oc4cnc5[nH]ccc5c4)c3)CC2)=C(c2ccc(Cl)cc2)C1 [Venetoclax] (first compound max 10 µM, 7x7, partner max 1 µM) | 0.21 | 0.04 | 0.889 | 0.437 | 0.0462 | -0.019 | -0.0365 | -0.0624 | -0.0113 | 0.0073 | -0.0187 | 0 | -0.0942 | 0.0199 | 0.0216 | -0.0526 | -0.0498 | -0.0103 | -0.0152 | -0.0513
Cc1cc2ncnn2cc1Nc1ncc2c(n1)n(C1CCOCC1)c(=O)n2C [AZD7648] + O=C(c1cc(Cc2n[nH]c(=O)c3ccccc23)ccc1F)N1CCN(C(=O)C2CC2)CC1 [Olaparib] (first compound max 10 µM, 7x7, partner max 10 µM) | 0.237 | 0.0602 | 0.269 | 0.138 | -0.0492 | -0.1 | -0.0183 | -0.0151 | 0.0061 | -0.0558 | -0.026 | -0.0152 | -0.0488 | -0.0378 | -0.0159 | -0.0164 | -0.0152 | -0.0534 | -0.0584 | -0.0461
CN(C)CCCOc1ccc(-c2ccc3ncc4c(c3c2)n(C2CCOCC2)c(=O)n4C)cn1 [AZD0156] + C=CCn1c(=O)c2cnc(Nc3ccc(N4CCN(C)CC4)cc3)nc2n1-c1cccc(C(C)(C)O)n1 [AZD1775] (first compound max 1 µM, partner max 1 µM) | 0.394 | 0.235 | 0.988 | 0.47 | -0.0479 | -0.0768 | -0.0131 | -0.129 | -0.0599 | -0.0554 | 0.0036 | -0.0193 | -0.0251 | -0.0486 | -0.0003 | -0.0141 | -0.0252 | -0.0198 | -0.0576 | -0.0895
Cn1cnc2c(F)c(Nc3ccc(Br)cc3Cl)c(C(=O)NOCCO)cc21 [Selumetinib] + C=CCn1c(=O)c2cnc(Nc3ccc(N4CCN(C)CC4)cc3)nc2n1-c1cccc(C(C)(C)O)n1 [AZD1775] (first compound max 10 µM, partner max 1 µM) | 0.59 | 0.444 | 0.982 | 0.47 | 0.0238 | -0.0399 | -0.0298 | -0.0312 | -0.0849 | -0.092 | -0.0531 | -0.0352 | -0.0663 | -0.0734 | -0.0375 | -0.027 | -0.0202 | -0.0193 | -0.0577 | -0.0806
COc1nnc2ccc(N3CCC(c4ccc(OCCN5CCN(C)C(=O)[C@H]5C)cc4)CC3)nn12 [AZD5153] + C=CCn1c(=O)c2cnc(Nc3ccc(N4CCN(C)CC4)cc3)nc2n1-c1cccc(C(C)(C)O)n1 [AZD1775] (first compound max 1 µM, partner max 1 µM) | 0.549 | 0.397 | 0.978 | 0.645 | -0.0474 | -0.0397 | -0.0308 | -0.0303 | -0.0199 | -0.125 | 0.007 | -0.0342 | -0.068 | -0.0178 | -0.0111 | 0.0105 | -0.0866 | -0.073 | 0.0045 | -0.0763
CC1(C)CCC(CN2CCN(c3ccc(C(=O)NS(=O)(=O)c4ccc(NCC5CCOCC5)c([N+](=O)[O-])c4)c(Oc4cnc5[nH]ccc5c4)c3)CC2)=C(c2ccc(Cl)cc2)C1 [Venetoclax] + C[C@@H](Nc1cc(F)cc(F)c1)c1cc(C(=O)N(C)C)cc2c(=O)cc(N3CCOCC3)oc12 [AZD8186] (first compound max 1 µM, 7x7, partner max 3 µM) | 0.178 | 0.0998 | 0.792 | 0.434 | 0.0371 | -0.0594 | -0.0218 | 0.0128 | -0.0315 | 0.122 | -0.0297 | -0.0197 | -0.0402 | -0.0019 | -0.111 | -0.05 | -0.049 | -0.0644 | -0.0258 | -0.055
Cn1cnc2c(F)c(Nc3ccc(Br)cc3Cl)c(C(=O)NOCCO)cc21 [Selumetinib] + CCN(CCO)CCCOc1ccc2c(Nc3cc(CC(=O)Nc4cccc(F)c4)[nH]n3)ncnc2c1 [AZD2811] (first compound max 10 µM, 7x7, partner max 1 µM) | 0.426 | 0.534 | 0.609 | 0.444 | 0.0062 | -0.0209 | -0.0238 | -0.056 | -0.0273 | -0.0267 | -0.0203 | -0.0741 | 0.0328 | -0.0341 | 0.0018 | -0.0193 | 0.088 | -0.0491 | 0.025 | -0.0324
CN(C)CCCOc1ccc(-c2ccc3ncc4c(c3c2)n(C2CCOCC2)c(=O)n4C)cn1 [AZD0156] + C[C@@H]1COCCN1C2=NC(=NC(=C2)C3(CC3)[S@](=N)(=O)C)C4=C5C=CNC5=NC=C4 [AZD6738] (first compound max 1 µM, 7x7, partner max 10 µM) | 0.368 | 0.28 | 0.904 | 0.594 | -0.0323 | -0.0775 | -0.0643 | -0.0233 | 0.0507 | -0.0448 | 0.0147 | 0.0798 | -0.0344 | -0.0327 | -0.0074 | 0.0095 | 0.0186 | -0.0448 | -0.0214 | 0.0015
Cc1c2c(nn1C)CSCc1cc(n(C)n1)CSc1cc(c3ccccc3c1)OCCCc1c(C(=O)O)n(C)c3c-2c(Cl)ccc13 [AZD5991] + C[C@@H](Nc1cc(F)cc(F)c1)c1cc(C(=O)N(C)C)cc2c(=O)cc(N3CCOCC3)oc12 [AZD8186] (first compound max 1 µM, 7x7, partner max 3 µM) | 0.172 | 0.17 | 1 | 0.314 | -0.0439 | -0.0595 | 0.0848 | -0.0601 | 0.0492 | -0.0351 | -0.0069 | 0.0316 | -0.0003 | -0.0758 | -0.0231 | -0.0029 | -0.0116 | 0.0059 | -0.0268 | -0.0576
NC1(C(=O)N[C@@H](CCO)c2ccc(Cl)cc2)CCN(c2ncnc3[nH]ccc23)CC1 [Capivasertib] + CCN(CCO)CCCOc1ccc2c(Nc3cc(CC(=O)Nc4cccc(F)c4)[nH]n3)ncnc2c1 [AZD2811] (first compound max 10 µM, 7x7, partner max 1 µM) | 0.225 | 0.197 | 0.551 | 0.401 | 0.0616 | -0.0486 | 0.0267 | 0.0132 | 0.0241 | 0.0228 | -0.0306 | -0.0152 | 0.0016 | 0.0142 | -0.0379 | -0.015 | -0.0055 | -0.03 | -0.0338 | -0.0113
Cc1c2c(nn1C)CSCc1cc(n(C)n1)CSc1cc(c3ccccc3c1)OCCCc1c(C(=O)O)n(C)c3c-2c(Cl)ccc13 [AZD5991] + Cc1cc2ncnn2cc1Nc1ncc2c(n1)n(C1CCOCC1)c(=O)n2C [AZD7648] (first compound max 1 µM, 7x7, partner max 10 µM) | 0.267 | 0.168 | 1 | 0.283 | -0.013 | -0.0057 | -0.0168 | -0.0501 | -0.025 | 0.0007 | -0.0029 | -0.0298 | 0.0115 | -0.0341 | -0.0537 | 0.0063 | -0.0301 | -0.0505 | -0.0069 | -0.0308

Reference: the supplement of paper PMC11061612
